Assay results reported in patent US9045491B2, “Thienyl [3,2-D] pyrimidin-4-one compounds, preparation method, pharmaceutical compositions and use thereof” (SHANGHAI INSTITUTE OF MATERIA MEDICA, CHINESE ACADEMY OF …, priority 2011, dated 2015).
Values joined by “and” are separate entries in the source; they are usually repeats but may differ in a detail not shown here. Identical values can stand only once.

Assay: Pharmacokinetics of DC291407 and metabolites in rats (LC-MS/MS)
Assay type: in vivo, Sprague-Dawley (SD) rats
Procedure: The concentration of metabolite M1 (4071001), metabolite M2 (407002) or metabolite M3 (407003) in plasma was determined by LC-MS/MS method after DC291407 was administrated to the rats through gavage and intravenous injection.
The LC/MS/MS used is triple quadruple LC/MS 6460 from Agilent.
Six healthy male Sprague-Dawley (SD) rats with the weight of 180-220 g were randomly divided into 2 groups. The rats in each group were administrated with the tested compound by gavage or intravenous injection, respectively.
The compound was dissolved in 6.7% DMSO/6.7% Tween/86.6% normal saline.
The rats fasted for 12 h and can drink water ad libitum. 2 h after dosing, the rats were provided with food all together. The time point for collecting blood samples and the sample processing are listed as follows.
Intragastric administration: 0.25, 0.5, 1.0, 2.0, 3.0, 4.0, 6.0, 8.0 and 24 h after administration;
Intravenous administration: 5 min, 0.25, 0.5, 1.0, 2.0, 4.0, 6.0, 8.0 and 24 h after administration. At above time point, 0.3 ml venous blood was taken from retrobulbar venous plexus of the rat and loaded into heparinization tube. After centrifuged at 11000 rpm for 5 min, the plasma was separated and frozen at −20° C. in a refrigerator.

[1] = intravenous injection 10 mg/kg DC291407, average of 3 animals
[2] = intravenous injection 10 mg/kg DC291407, individual animals, 10 mg/kg
[3] = intravenous injection 10 mg/kg DC291407, time 0.083 h, average of 3 animals
[4] = intravenous injection 10 mg/kg DC291407, time 0.083 h, individual animals, 10 mg/kg
[5] = intravenous injection 10 mg/kg DC291407, time 0.25 h, average of 3 animals
[6] = intravenous injection 10 mg/kg DC291407, time 0.25 h, individual animals, 10 mg/kg
[7] = intravenous injection 10 mg/kg DC291407, time 0.50 h, average of 3 animals
[8] = intravenous injection 10 mg/kg DC291407, time 0.50 h, individual animals, 10 mg/kg
[9] = intravenous injection 10 mg/kg DC291407, time 1.0 h, average of 3 animals
[10] = intravenous injection 10 mg/kg DC291407, time 1.0 h, individual animals, 10 mg/kg
[11] = intravenous injection 10 mg/kg DC291407, time 2.0 h, average of 3 animals
[12] = intravenous injection 10 mg/kg DC291407, time 2.0 h, individual animals, 10 mg/kg
[13] = intravenous injection 10 mg/kg DC291407, time 4.0 h, individual animals, BLQ = below lower quantification
[14] = intravenous injection 10 mg/kg DC291407, time 6.0 h, individual animals, BLQ = below lower quantification
[15] = intravenous injection 10 mg/kg DC291407, time 8.0 h, individual animals, BLQ = below lower quantification
[16] = intravenous injection 10 mg/kg DC291407, time 24 h, individual animals, BLQ = below lower quantification

## COC(=O)c1cc2nc(N3CCCC(N)C3)n(Cc3ccccc3C#N)c(=O)c2s1 (stereo not drawn) [DC291407]
[1]
  Vss of prototype drug: 210 L/kg
  t1/2 of metabolite M1: 738 min
  t1/2 of prototype drug: 40.8 min
Intravenous injection 10 mg/kg DC291407, individual animals
  Tmax of metabolite M1: 4.98 min
[2]
  AUC0-t of metabolite M1: 22692 ng·h/mL and 20658 ng·h/mL and 23472 ng·h/mL
  AUC0-t of prototype drug: 42.4 ng·h/mL and 40.9 ng·h/mL and 24.8 ng·h/mL
  AUC0-∞ of metabolite M1: 23114 ng·h/mL and 20834 ng·h/mL and 23603 ng·h/mL
  AUC0-∞ of prototype drug: 45.9 ng·h/mL and 43.9 ng·h/mL and 29.8 ng·h/mL
  CL of prototype drug: 218 L/h/kg and 228 L/h/kg and 335 L/h/kg
  Cmax of metabolite M1: 39818 ng/mL and 41730 ng/mL and 53535 ng/mL
  MRT of metabolite M1: 96 min and 60.6 min and 47.4 min
  MRT of prototype drug: 40.8 min and 40.2 min and 58.8 min
  Vss of prototype drug: 148 L/kg and 154 L/kg and 328 L/kg
  t1/2 of metabolite M1: 1150 min and 551 min and 504 min
  t1/2 of prototype drug: 30.6 min and 31.8 min and 60.6 min
[3]
  Plasma concentration of metabolite M1: 45028 ng/mL
  Plasma concentration of metabolite M2: 117 ng/mL
  Plasma concentration of prototype compound: 59.2 ng/mL
[4]
  Plasma concentration of metabolite M1: 39818 ng/mL and 41730 ng/mL and 53535 ng/mL
  Plasma concentration of metabolite M2: 126 ng/mL and 209 ng/mL and 15.0 ng/mL
  Plasma concentration of prototype compound: 63.4 ng/mL and 60.7 ng/mL and 53.4 ng/mL
[5]
  Plasma concentration of metabolite M1: 29232 ng/mL
  Plasma concentration of metabolite M2: 339 ng/mL
  Plasma concentration of prototype compound: 34.8 ng/mL
[6]
  Plasma concentration of metabolite M1: 28858 ng/mL and 29247 ng/mL and 29592 ng/mL
  Plasma concentration of metabolite M2: 866 ng/mL and 132 ng/mL and 20.3 ng/mL
  Plasma concentration of prototype compound: 49.7 ng/mL and 34.4 ng/mL and 20.3 ng/mL
[7]
  Plasma concentration of metabolite M1: 9487 ng/mL
  Plasma concentration of metabolite M2: 102 ng/mL
  Plasma concentration of prototype compound: 23.0 ng/mL
[8]
  Plasma concentration of metabolite M1: 11784 ng/mL and 7251 ng/mL and 9426 ng/mL
  Plasma concentration of metabolite M2: 144 ng/mL and 153 ng/mL and 9.39 ng/mL
  Plasma concentration of prototype compound: 27.4 ng/mL and 31.7 ng/mL and 9.72 ng/mL
[9]
  Plasma concentration of metabolite M1: 4717 ng/mL
  Plasma concentration of metabolite M2: 23.4 ng/mL
  Plasma concentration of prototype compound: 9.9 ng/mL
[10]
  Plasma concentration of metabolite M1: 5628 ng/mL and 4634 ng/mL and 3891 ng/mL
  Plasma concentration of metabolite M2: 36.0 ng/mL and 30.9 ng/mL and 3.26 ng/mL
  Plasma concentration of prototype compound: 11.3 ng/mL and 11.9 ng/mL and 6.61 ng/mL
[11]
  Plasma concentration of metabolite M1: 310 ng/mL
  Plasma concentration of prototype compound: 4.05 ng/mL
[12]
  Plasma concentration of metabolite M1: 401 ng/mL and 214 ng/mL and 314.7 ng/mL
  Plasma concentration of prototype compound: 4.75 ng/mL and 3.94 ng/mL and 3.44 ng/mL
Intravenous injection 10 mg/kg DC291407, time 2.0 h, individual animals, BLQ = below lower quantification, 10 mg/kg
  Plasma concentration of metabolite M2: BLQ (2×) and 7.18 ng/mL
Intravenous injection 10 mg/kg DC291407, time 4.0 h, average of 3 animals
  Plasma concentration of metabolite M1: 69.7 ng/mL
Intravenous injection 10 mg/kg DC291407, time 4.0 h, individual animals, 10 mg/kg
  Plasma concentration of metabolite M1: 55.4 ng/mL and 68.1 ng/mL and 85.5 ng/mL
[13]
  Plasma concentration of metabolite M2: BLQ
  Plasma concentration of prototype compound: BLQ
Intravenous injection 10 mg/kg DC291407, time 6.0 h, average of 3 animals
  Plasma concentration of metabolite M1: 40.5 ng/mL
Intravenous injection 10 mg/kg DC291407, time 6.0 h, individual animals, 10 mg/kg
  Plasma concentration of metabolite M1: 30.9 ng/mL and 41.4 ng/mL and 49.3 ng/mL
[14]
  Plasma concentration of metabolite M2: BLQ
  Plasma concentration of prototype compound: BLQ
Intravenous injection 10 mg/kg DC291407, time 8.0 h, average of 3 animals
  Plasma concentration of metabolite M1: 37.3 ng/mL
Intravenous injection 10 mg/kg DC291407, time 8.0 h, individual animals, 10 mg/kg
  Plasma concentration of metabolite M1: 24.8 ng/mL and 48.5 ng/mL and 38.5 ng/mL
[15]
  Plasma concentration of metabolite M2: BLQ
  Plasma concentration of prototype compound: BLQ
Intravenous injection 10 mg/kg DC291407, time 24 h, average of 3 animals
  Plasma concentration of metabolite M1: 13.1 ng/mL
Intravenous injection 10 mg/kg DC291407, time 24 h, individual animals, 10 mg/kg
  Plasma concentration of metabolite M1: 15.2 ng/mL and 13.3 ng/mL and 10.8 ng/mL
[16]
  Plasma concentration of metabolite M2: BLQ
  Plasma concentration of prototype compound: BLQ
